In ChEMBL document CHEMBL3832022, “DailyMed|setid=50ee3815-7675-4bc0-a88a-ab3886aea795 | ESTRING - estradiol ring|Physicians Total Care, Inc”:

Assays:
[1] = (§1) Mean steady-state pharmacokinetic parameters for Estradiol evaluated after a single dose of 2 mg of Estradiol as estridiol vaginal ring; format: ADME, organism-based; set-up: dose 2 mg, route vaginal; details: human, in vivo, dosed compound id 17, dosed compound name ESTRADIOL, gender female, regimen Single dose, sampling time1 12 weeks, tissue Serum
[2] = organism: Homo sapiens; assay: as §1; format: ADME, organism-based; set-up: dose 2 mg, route vaginal; details: in vivo, other, dosed compound id 17, dosed compound name ESTRADIOL, gender female, regimen Single dose, sampling time1 12 weeks, tissue Serum

## C[C@]12CC[C@@H]3c4ccc(O)cc4CC[C@H]3[C@@H]1CC[C@@H]2O [ESTRADIOL]
[1]; 2 mg
  Cmax: 0.0632 ng/mL
[1]; dose 2 mg, route vaginal
  Tmax: 30 to 60 min
[1]; dose 2 mg, route vaginal, read-out: Css-12w
  concentration at 12 weeks: 0.008 ng/mL
[2]
  Cmax: 0.0556 ng/mL
